Laboratory results: patent publication US20200121677A1, “SUBSTITUTED 6,7-DIHYDROPYRAZOLO[1,5-a]PYRAZINES AS NEGATIVE ALLOSTERIC MODULATORS OF MGLUR2 RECEPTORS” (Janssen Pharmaceutica NV, priority 2014, published 2020)
Where a name gives a salt, the structure may show the parent alone. Read-outs that look alike come from different tables or passages of the source.

Columns and labels:
human mGlu2 receptor = human mGlu2 receptor (Homo sapiens, UniProt Q14416); test: [35S]GTPγS binding assay, mGluR2 negative allosteric modulation (membranes from CHO cells transfected with human mGlu2 receptor, glutamate ~EC80 60 μM); conditions: for IC50: GTPγS - hmGluR2 anGT pIC50, membranes with human mGlu2 receptor; for IC50 / GTPγS - hmGluR2 anGT pIC50: glutamate ~EC80 (60 μM), pIC50 = -log IC50 (M); for GTPγS - hmGluR2 anGT Emax: relative maximal effect: maximal % inhibition relative to the control glutamate response; for GTPγS - hmGluR2 anGT pIC50: membranes with human mGlu2 receptor;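 for all read-outs here: membranes preincubated 30 min at 30 °C with compound plus glutamate, then [35S]GTPγS (0.1 nM) incorporation measured over another 30 min at 30 °C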
Chain of human mGlu2 receptor (Q14416 19-872): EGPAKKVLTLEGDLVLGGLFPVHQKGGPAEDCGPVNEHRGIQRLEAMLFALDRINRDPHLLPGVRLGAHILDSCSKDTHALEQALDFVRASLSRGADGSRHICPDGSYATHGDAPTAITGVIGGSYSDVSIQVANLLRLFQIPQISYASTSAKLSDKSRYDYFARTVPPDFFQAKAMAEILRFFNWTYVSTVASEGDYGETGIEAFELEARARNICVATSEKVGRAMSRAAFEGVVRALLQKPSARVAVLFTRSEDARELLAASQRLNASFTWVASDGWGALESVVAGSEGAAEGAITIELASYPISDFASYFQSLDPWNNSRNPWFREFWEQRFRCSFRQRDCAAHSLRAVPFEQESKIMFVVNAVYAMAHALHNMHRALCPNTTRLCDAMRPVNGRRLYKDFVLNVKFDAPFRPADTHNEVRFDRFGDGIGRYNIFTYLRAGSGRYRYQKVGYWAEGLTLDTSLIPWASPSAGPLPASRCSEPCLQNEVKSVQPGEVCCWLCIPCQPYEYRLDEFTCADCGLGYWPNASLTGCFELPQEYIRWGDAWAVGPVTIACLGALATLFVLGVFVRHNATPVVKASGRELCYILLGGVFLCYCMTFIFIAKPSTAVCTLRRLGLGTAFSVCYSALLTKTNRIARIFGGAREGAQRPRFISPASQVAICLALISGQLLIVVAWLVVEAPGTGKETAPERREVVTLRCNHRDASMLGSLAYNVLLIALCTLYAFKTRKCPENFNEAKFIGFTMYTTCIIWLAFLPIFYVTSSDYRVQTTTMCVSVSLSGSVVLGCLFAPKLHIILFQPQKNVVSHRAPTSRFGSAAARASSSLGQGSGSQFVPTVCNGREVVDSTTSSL

[1] = read-out: GTPγS - hmGluR2 anGT Emax, relative maximal effect: maximal % inhibition relative to the control glutamate response

IC50 (human mGlu2 receptor) [M]	GTPγS - hmGluR2 anGT Emax (human mGlu2 receptor) [%]	melting point [°C]	Emax (human mGlu2 receptor; [1]) [%]	GTPγS - hmGluR2 anGT pIC50 (human mGlu2 receptor)	SMILES	Emax (human mGlu2 receptor; read-out: GTPγS - hmGluR2 anGT Emax) [%]
1.1e-09	106				C[C@H]1CN(c2ccc(C(F)(F)F)cc2)C(=O)c2c(C(=O)Nc3cncc(F)c3)cnn21 [13a]	
1.48e-07		94.5	114		Cc1cc(NC(=O)c2cnn3c2C(=O)N(c2ccccc2)C[C@@H]3C)ccn1 [compound 97]	
	104			8.53	C[C@H]1CN(c2ccc(Cl)c(Cl)c2)C(=O)c2c(C(=O)Nc3ccc(F)nc3)cnn21 [compound 56]	
1.86e-08		224.9	103		Cc1cc(NC(=O)c2cnn3c2C(=O)N(c2ccc(C(F)(F)F)c(C#N)c2)C[C@@H]3C)ccn1 [compound 91]	
6.92e-07			111		Cc1cc(C(=O)NC(=O)c2cnn3c2C(=O)N(c2ccc(C(F)(F)F)cc2)C[C@@H]3C)ccn1 [compound 135, (7S)-7-Methyl-N-(2-methylpyridine-4-carbonyl)-4-oxo-5-[4-(trifluoromethyl)phenyl]-6,7-dihydropyrazolo[1,5-a]pyrazine-3-carboxamide]	
2.29e-08		160.4	109		COCc1cc(N2C[C@H](C)n3ncc(C(=O)Nc4ccccn4)c3C2=O)ccc1C(F)(F)F [compound 31]	
8.13e-09		169.28	107		C[C@H]1CN(c2ccc(C(F)(F)F)cc2)C(=O)c2c(C(=O)Nc3ccnc(CO)c3)cnn21 [compound 150]	
		146.4			C[C@H]1CN(c2ccc(C(F)(F)F)cc2)C(=O)c2c(C(=O)Nc3cncc(F)c3)cnn21 (as salt: HCl) [13a]	
	104			7.69	COCc1cc(NC(=O)c2cnn3c2C(=O)N(c2ccc(C(F)(F)F)cc2)C[C@@H]3C)ccn1 [compound 149]	
1.7e-09			102		C[C@H]1CN(c2ccc(C(F)(F)F)cc2)C(=O)c2c(C(=O)Nc3ccccc3)cnn21 [compound 57, (7S)-7-Methyl-4-oxo-N-phenyl-5-[4-(trifluoromethyl)phenyl]-6,7-dihydropyrazolo[1,5-a]pyrazine-3-carboxamide]	
4.79e-08			110		C[C@H]1CN(c2ccc(C(F)(F)F)cc2)C(=O)c2c(C(=O)Nc3ncccc3F)cnn21 [compound 12]	
5.62e-09			101		C[C@H]1CN(c2ccc(C(F)(F)F)cc2)C(=O)c2c(C(=O)Nc3ccc(F)nc3)cnn21 [compound 55, (7S)—N-(6-fluoro-3-pyridyl)-7-methyl-4-oxo-5-[4-(trifluoromethyl)phenyl]-6,7-dihydropyrazolo[1,5-a]pyrazine-3-carboxamide]	
2e-07			104		C[C@H]1CN(c2ccc(C(F)(F)F)cc2)C(=O)c2c(C(=O)NCc3ccccc3)cnn21 [compound 67]	
	107			7.39	Cc1cccc(NC(=O)c2cnn3c2C(=O)N(c2ccc(C(F)(F)F)cc2)C[C@@H]3C)n1 [compound 17]	

Continued, molecule first:

SMILES	IC50 (human mGlu2 receptor) [M]	GTPγS - hmGluR2 anGT Emax (human mGlu2 receptor) [%]	melting point [°C]	Emax (human mGlu2 receptor; [1]) [%]	GTPγS - hmGluR2 anGT pIC50 (human mGlu2 receptor)	Emax (human mGlu2 receptor; read-out: GTPγS - hmGluR2 anGT Emax) [%]
COc1cc(N2C[C@H](C)n3ncc(C(=O)Nc4cnccn4)c3C2=O)ccc1C(F)(F)F [compound 115]	6.92e-09		193.3	108		
COCC1CN(c2ccc(C(F)(F)F)c(Cl)c2)C(=O)c2c(C(=O)Nc3cccnc3)cnn21 (stereo not shown) [compound 164]	1.91e-09			108		
COc1cncc(NC(=O)c2cnn3c2C(=O)N(c2ccc(C(F)(F)F)c(Cl)c2)C[C@@H]3C)c1 [compound 51]	1.41e-09		214.9	113		
COc1cccc(NC(=O)c2cnn3c2C(=O)N(c2ccc(C(F)(F)F)c(OC)n2)C[C@@H]3C)c1 [compound 119, (7S)—N-(3-Methoxyphenyl)-5-[6-methoxy-5-(trifluoromethyl)-2-pyridyl]-7-methyl-4-oxo-6,7-dihydropyrazolo[1,5-a]pyrazine-3-carboxamide]	7.76e-09		194.51	111		
C[C@H]1CN(c2ccc(C(F)(F)F)c(Cl)c2)C(=O)c2c(C(=O)Nc3cncc(F)c3)cnn21 [compound 50]	1.74e-09		168.1	108		
C[C@H]1CN(c2ccc(C(F)(F)F)cc2)C(=O)c2c(C(=O)Nc3ccc(S(C)(=O)=O)cc3)cnn21 [compound 6]	3.09e-09		198.2	107		
C[C@H]1CN(c2ccc(C(F)(F)F)cc2)C(=O)c2c(C(=O)Nc3ccc(S(=O)(=O)F)cc3)cnn21 [compound 167]	4.27e-08		205.04			107
COCC1CN(c2ccc(C(F)(F)F)c(Cl)c2)C(=O)c2c(C(=O)Nc3cccnc3)cnn21 (single isomer, unassigned) [compound 157]	2.82e-07			104		
C[C@H]1CN(c2ccc(C(F)(F)F)cc2)C(=O)c2c(C(=O)NC3CCOCC3)cnn21 [compound 66]	1.86e-07			103		
C[C@H]1CN(c2ccc(C(F)(F)F)cc2)C(=O)c2c(C(=O)NCC3CCOCC3)cnn21 [compound 70]	8.13e-07		128.8	106		
C[C@H]1CN(c2ccc(C(F)(F)F)cc2)C(=O)c2c(C(=O)NC=O)cnn21 [compound 134]	6.31e-08			103		
COc1cc(N2C[C@H](C)n3ncc(C(=O)Nc4cc(C)nc(C)c4)c3C2=O)ccc1C(F)(F)F [compound 143]	8.13e-09		201.6	116		
C[C@H]1CN(c2ccc(C(F)(F)F)cc2)C(=O)c2c(C(=O)NCC3CCCO3)cnn21 (stereo partly shown) [compound 62]	7.76e-08		231.4	104		
COCC1CN(c2ccc(C(F)(F)F)cc2)C(=O)c2c(C(=O)Nc3cnccn3)cnn21 (stereo not shown) [compound 163]	1.02e-08			107		
Cc1c(F)cncc1NC(=O)c1cnn2c1C(=O)N(c1ccc(C(F)(F)F)c(F)c1)C[C@@H]2C [compound 131]	2.95e-09		186.35	110		
C[C@H]1CN(c2ccc(C(F)(F)F)cc2)C(=O)c2c(C(=O)NC3COC3)cnn21 [compound 72]	2.75e-07		108.6	111		
C[C@H]1CN(c2ccc(C(F)(F)F)cc2)C(=O)c2c(C(=O)NCC3CC3)cnn21 [compound 60]	4.37e-08		161.4	103		
Cc1c(F)cncc1NC(=O)c1cnn2c1C(=O)N(c1ccc(Cl)c(Cl)c1)C[C@@H]2C [compound 130]	8.51e-10		211.11	110		
COCC1CN(c2ccc(C(F)(F)F)cc2)C(=O)c2c(C(=O)Nc3cnccn3)cnn21 (single isomer, unassigned) [compound 155]		106			6.48	
C[C@H]1CN(c2ccc(C(F)(F)F)cc2)C(=O)c2c(C(=O)Nc3cncc(CO)c3)cnn21 [compound 148, (7S)—N-[5-(hydroxymethyl)pyridin-3-yl]-7-methyl-4-oxo-5-[4-(trifluoromethyl)phenyl]-4,5,6,7-tetrahydropyrazolo[1,5-a]pyrazine-3-carboxamide]	1.86e-08		150.83	105		
COCC1CN(c2ccc(C(F)(F)F)cc2)C(=O)c2c(C(=O)Nc3cccnc3)cnn21 (racemic) [compound 165]		106			8.03	
COc1ccc(NC(=O)c2cnn3c2C(=O)N(c2ccc(C(F)(F)F)cc2)C[C@@H]3C)nc1 [compound 102]		112			7.67	
C[C@H]1CN(c2ccc(C(F)(F)F)c(CF)c2)C(=O)c2c(C(=O)Nc3cccnc3)cnn21 [compound 53]		114			8.61	
CNC(=O)c1cnn2c1C(=O)N(c1ccc(C(F)(F)F)cc1)C[C@@H]2C [compound 69]	4.57e-07			103		
C[C@H]1CN(c2ccc(C(F)(F)F)cc2)C(=O)c2c(C(=O)NC(C)(C)C)cnn21 [compound 68]	2.63e-07			102		
COCC1CN(c2ccc(C(F)(F)F)cc2)C(=O)c2c(C(=O)Nc3cccnc3)cnn21 (single isomer, unassigned) [compound 159]		108			6.10	
